Laboratory results taken from ChEMBL document CHEMBL1201862, “PubChem BioAssay data set” (2004).
Activity calls are given as the source filed them.

How the values were obtained:
[1] = molecular target: T1, Protein RecA (Mycobacterium tuberculosis, UniProt P9WHJ3); assay: Fluorescence Cell-Free Homogeneous Dose Retest to Identify Inhibitors of RecA-Intein Splicing Activity. [Related pubchem assays (depositor defined):AID2097, AID2223, AID489010, AID492950]; format: functional
T1 sequence (P9WHJ3 whole entry): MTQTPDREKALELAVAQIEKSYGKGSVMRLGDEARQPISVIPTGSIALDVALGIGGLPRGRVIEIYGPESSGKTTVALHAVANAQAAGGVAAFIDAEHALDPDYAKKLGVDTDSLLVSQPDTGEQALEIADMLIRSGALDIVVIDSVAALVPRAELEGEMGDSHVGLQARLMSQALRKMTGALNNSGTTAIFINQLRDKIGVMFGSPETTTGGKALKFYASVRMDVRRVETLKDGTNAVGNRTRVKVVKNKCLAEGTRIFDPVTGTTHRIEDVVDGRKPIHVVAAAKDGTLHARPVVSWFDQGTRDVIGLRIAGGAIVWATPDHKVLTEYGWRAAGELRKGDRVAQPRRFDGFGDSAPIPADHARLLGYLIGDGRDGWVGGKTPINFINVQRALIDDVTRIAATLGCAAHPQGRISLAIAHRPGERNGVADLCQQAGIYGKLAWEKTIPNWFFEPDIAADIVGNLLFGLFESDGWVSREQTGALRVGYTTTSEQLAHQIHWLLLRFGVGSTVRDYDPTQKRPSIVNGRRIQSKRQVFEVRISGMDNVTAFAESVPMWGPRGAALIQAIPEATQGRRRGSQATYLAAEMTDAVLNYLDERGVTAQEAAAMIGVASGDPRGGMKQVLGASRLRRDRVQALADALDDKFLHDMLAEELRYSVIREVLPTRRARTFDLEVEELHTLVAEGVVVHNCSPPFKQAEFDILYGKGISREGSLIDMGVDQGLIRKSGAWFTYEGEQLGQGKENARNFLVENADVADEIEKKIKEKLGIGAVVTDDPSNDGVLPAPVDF

[2] = molecular target: T2, Cysteine protease ATG4B (Homo sapiens, UniProt Q9Y4P1); format: functional;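 further: Fluorescence-based dose-response confirmation assay measuring inhibition of ATG4B activity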
T2 sequence (Q9Y4P1 whole entry): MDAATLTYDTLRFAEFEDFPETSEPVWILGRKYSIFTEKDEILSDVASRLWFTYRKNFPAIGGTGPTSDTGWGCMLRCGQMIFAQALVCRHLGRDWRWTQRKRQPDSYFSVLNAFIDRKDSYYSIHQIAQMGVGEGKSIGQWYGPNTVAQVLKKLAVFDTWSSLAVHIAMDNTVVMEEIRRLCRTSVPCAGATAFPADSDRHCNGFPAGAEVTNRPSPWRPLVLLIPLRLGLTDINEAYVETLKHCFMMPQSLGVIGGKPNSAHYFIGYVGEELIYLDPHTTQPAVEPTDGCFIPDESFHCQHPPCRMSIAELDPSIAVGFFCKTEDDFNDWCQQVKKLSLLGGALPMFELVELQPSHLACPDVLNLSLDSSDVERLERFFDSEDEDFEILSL

[3] = molecular target: Photoreceptor-specific nuclear receptor (Homo sapiens, UniProt Q9Y5X4); format: functional;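 further: potency for compounds that break the NR2E3 corepressor complex and count as activators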
Photoreceptor-specific nuclear receptor, sequence (Q9Y5X4 whole entry): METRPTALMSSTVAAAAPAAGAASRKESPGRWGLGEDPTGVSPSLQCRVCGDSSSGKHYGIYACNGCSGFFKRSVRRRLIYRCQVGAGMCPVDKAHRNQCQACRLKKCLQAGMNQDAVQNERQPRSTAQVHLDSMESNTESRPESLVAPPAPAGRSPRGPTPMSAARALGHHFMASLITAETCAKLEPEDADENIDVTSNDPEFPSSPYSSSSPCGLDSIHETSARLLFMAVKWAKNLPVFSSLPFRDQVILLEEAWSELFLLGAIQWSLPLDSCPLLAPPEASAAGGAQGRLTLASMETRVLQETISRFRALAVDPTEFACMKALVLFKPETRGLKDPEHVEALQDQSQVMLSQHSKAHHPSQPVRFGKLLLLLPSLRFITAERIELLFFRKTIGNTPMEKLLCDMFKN

[4] = molecular target: T3, Replicative DNA helicase DnaB (Mycobacterium tuberculosis, UniProt P9WMR3); assay: DnaB intein splicing inhibitors, dose response, biochemical, cell-free fluorescence (AID 449749); format: functional
T3 sequence (P9WMR3 whole entry): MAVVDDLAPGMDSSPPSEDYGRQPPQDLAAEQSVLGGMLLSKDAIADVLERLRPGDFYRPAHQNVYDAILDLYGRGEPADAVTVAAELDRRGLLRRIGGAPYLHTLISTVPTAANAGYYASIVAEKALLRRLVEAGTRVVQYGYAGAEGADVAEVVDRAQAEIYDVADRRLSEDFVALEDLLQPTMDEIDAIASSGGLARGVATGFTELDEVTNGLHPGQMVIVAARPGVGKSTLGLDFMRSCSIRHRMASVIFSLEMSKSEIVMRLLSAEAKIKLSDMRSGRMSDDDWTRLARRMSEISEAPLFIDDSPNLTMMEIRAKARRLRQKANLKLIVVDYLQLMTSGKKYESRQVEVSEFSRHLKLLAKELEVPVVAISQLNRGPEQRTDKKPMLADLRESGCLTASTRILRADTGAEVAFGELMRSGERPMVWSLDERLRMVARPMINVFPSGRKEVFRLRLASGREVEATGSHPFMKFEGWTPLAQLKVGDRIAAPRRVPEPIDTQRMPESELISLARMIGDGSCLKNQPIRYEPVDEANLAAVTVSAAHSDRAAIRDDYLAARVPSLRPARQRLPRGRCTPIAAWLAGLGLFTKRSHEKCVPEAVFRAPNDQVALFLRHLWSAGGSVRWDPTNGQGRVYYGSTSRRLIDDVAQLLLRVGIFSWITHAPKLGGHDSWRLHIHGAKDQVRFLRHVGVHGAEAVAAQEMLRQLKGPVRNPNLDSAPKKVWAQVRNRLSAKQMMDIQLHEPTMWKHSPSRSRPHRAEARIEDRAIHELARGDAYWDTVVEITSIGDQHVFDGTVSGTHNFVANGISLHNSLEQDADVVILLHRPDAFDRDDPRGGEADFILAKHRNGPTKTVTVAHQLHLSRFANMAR

[5] = molecular target: Inhibitor of nuclear factor kappa-B kinase subunit epsilon (Homo sapiens, UniProt Q14164); assay: Navigating the Kinome. Panel member name: IKBKE; format: functional
[6] = molecular target: Tyrosine-protein kinase Blk (Homo sapiens, UniProt P51451); format: functional;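 further: obtained as one member of a kinome-wide kinase assay panel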
[7] = molecular target: Platelet-derived growth factor receptor beta (Homo sapiens, UniProt P09619); format: functional;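 further: value comes from a kinome panel, with PDGFRB tested as one panel member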
Platelet-derived growth factor receptor beta, sequence (P09619 whole entry): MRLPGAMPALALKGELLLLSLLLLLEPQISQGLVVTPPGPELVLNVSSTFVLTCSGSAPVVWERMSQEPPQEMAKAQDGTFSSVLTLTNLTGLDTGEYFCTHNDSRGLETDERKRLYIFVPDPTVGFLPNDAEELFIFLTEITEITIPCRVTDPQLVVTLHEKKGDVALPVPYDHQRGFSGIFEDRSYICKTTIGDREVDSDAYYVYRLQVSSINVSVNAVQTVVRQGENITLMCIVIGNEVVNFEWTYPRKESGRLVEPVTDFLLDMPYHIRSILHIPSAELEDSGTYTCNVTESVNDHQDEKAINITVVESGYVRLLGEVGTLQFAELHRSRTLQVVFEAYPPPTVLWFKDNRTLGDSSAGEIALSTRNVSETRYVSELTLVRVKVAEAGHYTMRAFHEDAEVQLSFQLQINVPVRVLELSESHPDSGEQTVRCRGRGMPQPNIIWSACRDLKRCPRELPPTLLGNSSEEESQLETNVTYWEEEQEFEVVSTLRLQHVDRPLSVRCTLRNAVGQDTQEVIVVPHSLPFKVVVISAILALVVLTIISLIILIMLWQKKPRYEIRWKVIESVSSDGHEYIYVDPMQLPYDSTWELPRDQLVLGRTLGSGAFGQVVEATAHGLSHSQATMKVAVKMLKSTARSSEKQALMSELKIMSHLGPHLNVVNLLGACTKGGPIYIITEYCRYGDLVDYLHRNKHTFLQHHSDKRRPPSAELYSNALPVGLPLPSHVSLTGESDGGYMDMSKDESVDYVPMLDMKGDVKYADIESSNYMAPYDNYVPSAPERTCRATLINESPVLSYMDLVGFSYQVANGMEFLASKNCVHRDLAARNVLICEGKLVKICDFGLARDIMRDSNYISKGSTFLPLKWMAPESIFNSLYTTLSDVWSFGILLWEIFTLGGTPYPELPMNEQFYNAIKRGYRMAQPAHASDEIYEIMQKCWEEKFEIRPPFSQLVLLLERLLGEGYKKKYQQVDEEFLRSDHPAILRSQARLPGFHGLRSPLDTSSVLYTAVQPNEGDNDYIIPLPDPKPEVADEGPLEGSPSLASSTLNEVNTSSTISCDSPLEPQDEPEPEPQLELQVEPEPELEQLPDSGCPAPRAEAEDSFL

[8] = molecular target: Serine/threonine-protein kinase 17A (Homo sapiens, UniProt Q9UEE5); format: functional
Serine/threonine-protein kinase 17A, sequence (Q9UEE5 whole entry): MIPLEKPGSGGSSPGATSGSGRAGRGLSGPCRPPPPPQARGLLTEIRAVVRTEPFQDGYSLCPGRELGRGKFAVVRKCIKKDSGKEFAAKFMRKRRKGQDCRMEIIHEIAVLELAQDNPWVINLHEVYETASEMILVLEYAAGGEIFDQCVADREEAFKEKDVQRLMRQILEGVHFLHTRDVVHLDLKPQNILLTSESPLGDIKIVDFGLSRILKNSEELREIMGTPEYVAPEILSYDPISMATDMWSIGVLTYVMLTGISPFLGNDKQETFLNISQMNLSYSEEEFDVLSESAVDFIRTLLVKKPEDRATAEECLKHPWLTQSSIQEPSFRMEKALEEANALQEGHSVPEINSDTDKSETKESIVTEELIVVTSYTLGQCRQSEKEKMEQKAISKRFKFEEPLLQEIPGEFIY

[9] = molecular target: Dual specificity protein kinase CLK4 (Homo sapiens, UniProt Q9HAZ1); format: functional
[10] = molecular target: Serine/threonine-protein kinase pim-3 (Homo sapiens, UniProt Q86V86); format: functional;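 further: value obtained as one member of a broad kinase panel profiling effort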
[11] = molecular target: Phosphorylase b kinase gamma catalytic chain, liver/testis isoform (Homo sapiens, UniProt P15735); format: functional;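 further: PHKG2 measured as one member of a kinome-wide kinase panel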
Phosphorylase b kinase gamma catalytic chain, liver/testis isoform, sequence (P15735 whole entry, canonical isoform): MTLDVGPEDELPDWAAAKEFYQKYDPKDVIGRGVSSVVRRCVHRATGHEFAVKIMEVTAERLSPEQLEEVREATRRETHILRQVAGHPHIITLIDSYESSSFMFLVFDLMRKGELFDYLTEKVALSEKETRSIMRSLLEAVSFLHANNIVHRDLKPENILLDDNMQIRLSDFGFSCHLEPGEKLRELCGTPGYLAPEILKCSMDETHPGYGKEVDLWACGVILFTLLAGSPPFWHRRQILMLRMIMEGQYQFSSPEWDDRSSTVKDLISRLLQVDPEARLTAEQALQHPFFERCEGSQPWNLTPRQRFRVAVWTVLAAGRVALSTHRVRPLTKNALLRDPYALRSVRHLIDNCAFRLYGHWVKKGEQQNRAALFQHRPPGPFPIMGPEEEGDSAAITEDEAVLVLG

[12] = molecular target: Receptor tyrosine-protein kinase erbB-4 (Homo sapiens, UniProt Q15303); format: functional;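 further: ERBB4 member of a kinome-wide kinase profiling panel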
Receptor tyrosine-protein kinase erbB-4, sequence (Q15303 whole entry): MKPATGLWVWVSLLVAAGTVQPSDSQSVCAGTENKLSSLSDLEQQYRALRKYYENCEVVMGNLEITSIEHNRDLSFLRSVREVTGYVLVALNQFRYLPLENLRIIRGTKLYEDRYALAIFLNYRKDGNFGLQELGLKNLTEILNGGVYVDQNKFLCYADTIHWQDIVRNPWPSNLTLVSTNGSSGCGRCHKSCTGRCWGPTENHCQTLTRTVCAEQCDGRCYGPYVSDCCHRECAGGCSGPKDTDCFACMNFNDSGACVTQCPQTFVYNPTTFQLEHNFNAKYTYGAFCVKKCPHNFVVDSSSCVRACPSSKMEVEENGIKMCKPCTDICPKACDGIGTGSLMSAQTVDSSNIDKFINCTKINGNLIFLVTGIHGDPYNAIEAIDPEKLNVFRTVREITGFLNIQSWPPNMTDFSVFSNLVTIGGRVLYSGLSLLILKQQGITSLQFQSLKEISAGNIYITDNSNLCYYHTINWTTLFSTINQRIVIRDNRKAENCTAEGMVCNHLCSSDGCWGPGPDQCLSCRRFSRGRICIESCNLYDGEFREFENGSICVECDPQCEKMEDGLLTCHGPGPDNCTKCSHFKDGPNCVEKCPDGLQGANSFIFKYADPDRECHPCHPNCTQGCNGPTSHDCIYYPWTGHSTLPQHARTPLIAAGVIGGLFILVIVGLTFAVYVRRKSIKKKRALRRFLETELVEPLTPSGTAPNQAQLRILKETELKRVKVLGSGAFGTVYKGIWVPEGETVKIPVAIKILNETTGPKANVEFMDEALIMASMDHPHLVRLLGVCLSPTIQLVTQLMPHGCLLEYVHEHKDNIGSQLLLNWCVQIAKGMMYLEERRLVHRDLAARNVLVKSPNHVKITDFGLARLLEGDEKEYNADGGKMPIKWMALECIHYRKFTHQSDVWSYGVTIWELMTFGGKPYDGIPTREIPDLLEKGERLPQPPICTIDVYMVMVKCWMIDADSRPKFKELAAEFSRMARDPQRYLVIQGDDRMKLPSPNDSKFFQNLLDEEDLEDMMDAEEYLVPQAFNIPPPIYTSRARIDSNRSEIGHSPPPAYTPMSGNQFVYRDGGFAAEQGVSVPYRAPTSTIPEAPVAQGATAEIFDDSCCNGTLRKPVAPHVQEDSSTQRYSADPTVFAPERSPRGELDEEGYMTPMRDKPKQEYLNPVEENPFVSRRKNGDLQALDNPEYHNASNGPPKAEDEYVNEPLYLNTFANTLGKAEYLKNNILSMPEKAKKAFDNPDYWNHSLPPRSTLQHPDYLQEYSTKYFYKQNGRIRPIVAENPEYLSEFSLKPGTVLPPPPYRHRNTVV

[13] = molecular target: BDNF/NT-3 growth factors receptor (Homo sapiens, UniProt Q16620); format: functional;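 further: NTRK2 measured as one member of a broad kinome-wide kinase profiling panel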
[14] = molecular target: Serine/threonine-protein kinase N2 (Homo sapiens, UniProt Q16513); format: functional
Serine/threonine-protein kinase N2, sequence (Q16513 whole entry): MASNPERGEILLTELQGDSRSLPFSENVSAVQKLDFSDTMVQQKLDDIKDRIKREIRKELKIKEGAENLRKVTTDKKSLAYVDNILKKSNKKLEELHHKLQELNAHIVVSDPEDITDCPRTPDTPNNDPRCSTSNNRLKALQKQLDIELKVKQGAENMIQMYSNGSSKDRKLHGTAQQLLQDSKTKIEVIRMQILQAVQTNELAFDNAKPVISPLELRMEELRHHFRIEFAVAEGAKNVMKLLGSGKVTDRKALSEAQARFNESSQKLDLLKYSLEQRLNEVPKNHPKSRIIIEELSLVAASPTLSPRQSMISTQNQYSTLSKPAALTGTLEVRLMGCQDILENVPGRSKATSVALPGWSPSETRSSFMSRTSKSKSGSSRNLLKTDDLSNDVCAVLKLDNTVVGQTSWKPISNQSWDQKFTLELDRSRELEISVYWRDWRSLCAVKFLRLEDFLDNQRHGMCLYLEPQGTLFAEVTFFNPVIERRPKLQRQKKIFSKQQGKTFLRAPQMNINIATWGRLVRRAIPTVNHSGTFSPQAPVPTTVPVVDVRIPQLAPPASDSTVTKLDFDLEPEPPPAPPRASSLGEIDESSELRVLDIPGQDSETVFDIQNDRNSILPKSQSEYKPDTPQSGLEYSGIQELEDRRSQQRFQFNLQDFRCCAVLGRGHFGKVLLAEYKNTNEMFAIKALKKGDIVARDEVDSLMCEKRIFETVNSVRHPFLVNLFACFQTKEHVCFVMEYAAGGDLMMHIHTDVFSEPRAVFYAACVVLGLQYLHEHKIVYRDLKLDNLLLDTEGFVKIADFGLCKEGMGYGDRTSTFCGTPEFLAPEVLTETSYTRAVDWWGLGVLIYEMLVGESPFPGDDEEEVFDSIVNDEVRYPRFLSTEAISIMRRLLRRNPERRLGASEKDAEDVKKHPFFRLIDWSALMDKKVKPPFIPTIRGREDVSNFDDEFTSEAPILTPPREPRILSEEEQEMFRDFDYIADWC

[15] = molecular target: Calcium/calmodulin-dependent protein kinase type II subunit delta (Homo sapiens, UniProt Q13557); format: functional
[16] = test system: Staphylococcus aureus; assay: Inhibitors of Bacterial Quorum Sensing Structure Activity Relationship (SAR) Analysis: Dose Response Assay. [Related pubchem assays: 700, 527 ]; format: functional, organism-based

Row | SMILES | EC50 [1] | IC50 [2] | IC50 [3] | AC50 [4] | Ki [5] | Ki [6] | Ki [7] | Ki [8] | Ki [9] | Ki [10] | Ki [11] | Ki [12] | Ki [13] | Ki [14] | Ki [15] | IC50 [16]
1 | O=C1C=C(N2CCOCC2)c2ccccc2C1=O | 0.15 µM (active) | 7.07 µM (active) | > 39.8 µM (not active) | 1.05 µM (active) | – | – | – | – | – | – | – | – | – | – | – | –
2 | N#Cc1ccc2[nH]c(O)c(-c3ccc(CN4CCOCC4)cn3)c2c1 [AZD-1080] | – | – | – | – | > 3.16 µM (inactive) | > 1.58 µM (inactive) | > 2 µM (inactive) | 0.501 µM (active) | 2.51 µM (active) | 3.98 µM (active) | > 5.01 µM (inactive) | > 3.98 µM (inactive) | > 3.98 µM (inactive) | > 6.31 µM (inactive) | > 6.31 µM (inactive) | –
3 | CCc1oc2ccccc2c1C(=O)c1cc(Br)c(O)c(Br)c1 [BENZBROMARONE] | 11.5 µM (active) | – | > 39.8 µM (not active) | 2.75 µM (active) | – | – | – | – | – | – | – | – | – | – | – | 0.131 µM (active)
